We go through 29 compounds from patent publication US20240383908A1, “SYNTHESIS AND APPLICATION OF PHOSPHATASE DEGRADER” (HINOVA PHARMACEUTICALS INC., priority 2021, published 2024).

Experiment [1] deals with T1, SHP2 protein (Homo sapiens, UniProt Q06124).
T1 sequence (Q06124 1-593): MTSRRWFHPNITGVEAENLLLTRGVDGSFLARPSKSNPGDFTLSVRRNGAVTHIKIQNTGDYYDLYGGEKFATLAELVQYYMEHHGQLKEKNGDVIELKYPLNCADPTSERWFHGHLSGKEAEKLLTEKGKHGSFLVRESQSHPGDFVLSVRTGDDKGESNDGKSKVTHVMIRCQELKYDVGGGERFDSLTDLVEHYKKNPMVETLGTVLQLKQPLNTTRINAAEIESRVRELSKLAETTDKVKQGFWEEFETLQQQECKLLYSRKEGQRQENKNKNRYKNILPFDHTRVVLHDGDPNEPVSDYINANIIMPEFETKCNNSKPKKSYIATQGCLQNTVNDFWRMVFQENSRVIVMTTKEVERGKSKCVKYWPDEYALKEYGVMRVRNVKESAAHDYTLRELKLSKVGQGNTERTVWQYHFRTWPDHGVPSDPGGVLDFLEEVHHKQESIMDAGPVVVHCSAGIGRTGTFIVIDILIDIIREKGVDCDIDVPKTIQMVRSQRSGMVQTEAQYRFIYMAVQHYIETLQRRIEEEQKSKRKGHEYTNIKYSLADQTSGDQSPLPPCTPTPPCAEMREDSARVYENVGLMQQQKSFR
Description: Degradation activity on SHP2 protein in MV-411 cells (Western blot, DC50). The format is cell-based. The settings on record: MV411 cells, 24 hours, read-out: Degradation activity for differenct cell lines MV411 (DC50). On the set-up: endogenous in cells. A digest of the protocol: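 MV-411 cells (1×10^6 cells/well, IMDM + 10% FBS) were treated 24 h with compound at 0.1-100 nM final, 0.1% DMSO, duplicates. SHP2 measured by Western blot against GAPDH, band density normalised to DMSO control; DC50 from dose-response fit.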
On the technique in general: In western blotting, separated proteins are transferred to a membrane and probed.

Experiment [2] addresses T1, SHP2 protein. The experiment is described as follows: Degradation activity on SHP2 protein in MIA Paca-2 cells (Western blot, DC50). The settings on record: read-out: Degradation activity for differenct cell lines MIA Paca-2 (DC50). Further details: endogenous in cells; host or cells: MIA Paca-2 cells. The format is cell-based. An outline of the steps: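 Cells were treated 24 h at 37 °C with compound (0.1–100 nM final, 0.1% DMSO). SHP2 was measured by Western blot with GAPDH as loading control, densitometry normalized to DMSO (100%). DC50, the concentration giving 50% degradation, came from a dose-response fit.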

For orientation: DC50 means the midpoint of the concentration-degradation curve.

Regarding `NC1(CO)CCN(c2cnc(Sc3cccc(NC(=O)CCCCCCN4CC5(CCN(c6ccc(C(=O)NCc7ccc8c(c7)CN(C7CCC(=O)NC7=O)C8=O)nc6)C5)C4)c3)cn2)CC1` (stereo not shown) [Compound 190], the values for the half-maximal degradation concentration (DC50) on SHP2 protein [1] and at SHP2 protein [2] were 100 to 1000 nM and more than 1000 nM, respectively.

Regarding `CC1(N)CCN(c2cnc(Sc3cccc(NC(=O)CCCCCCN4CC5(CCN(C6CC(C(=O)NCc7ccc8c(c7)CN(C7CCC(=O)NC7=O)C8=O)C6)C5)C4)c3)cn2)CC1` (stereo not shown) [Compound 160], the DC50 was 100 to 1000 nM at SHP2 protein [1] and more than 1000 nM on SHP2 protein [2].

As for `Cc1ncsc1-c1ccc([C@H](C)NC(=O)[C@@H]2C[C@@H](O)CN2C(=O)[C@@H](NC(=O)c2ccc(N3CCC4(CN(CCCCCCCC(=O)Nc5cccc(Sc6cnc(N7CCC(C)(N)CC7)cn6)c5)C4)C3)nn2)C(C)(C)C)cc1` [Compound 105], the DC50 on SHP2 protein [1] was less than 100 nM; on SHP2 protein [2], 100 to 1000 nM.

`COCC1(N)CCN(c2cnc(Sc3cccc(NC(=O)CCCCCCN4CC5(CCN(c6ccc(C(=O)NCc7ccc8c(c7)CN(C7CCC(=O)NC7=O)C8=O)nn6)C5)C4)c3)cn2)CC1` (stereo not shown) [Compound 199]: the half-maximal degradation concentration (DC50) at SHP2 protein [1] and on SHP2 protein [2] was less than 100 nM throughout.

Consider `CC1(N)CCN(c2cnc(Sc3cccc(NC(=O)CCCCCOC4CC5(CCN(c6ccc(C(=O)NCc7ccc8c(c7)CN(C7CCC(=O)NC7=O)C8=O)nn6)C5)C4)c3)cn2)CC1` (stereo not shown) [Compound 166], for which the DC50 on SHP2 protein [1] and on SHP2 protein [2] was less than 100 nM throughout.

In the case of `CC1(N)CCN(c2cnc(Sc3cccc(NC(=O)CCCCCCCO[C@H]4CCN(c5ccc(C(=O)NCc6ccc7c(c6)CN(C6CCC(=O)NC6=O)C7=O)nn5)C4)c3)cn2)CC1` (stereo partly shown) [Compound 102], the DC50 at SHP2 protein [1] and at SHP2 protein [2] was less than 100 nM each time.

`CC1(N)CCN(c2cnc(Sc3cccc(NC(=O)CCCCCCCO[C@@H]4CCN(c5ncc(C(=O)NCc6ccc7c(c6)CN(C6CCC(=O)NC6=O)C7=O)cn5)C4)c3)cn2)CC1` (stereo partly shown) [Compound 104]: the values for the 50% degradation concentration (DC50) on SHP2 protein [1] and on SHP2 protein [2] were less than 100 nM and more than 1000 nM, respectively.

Turning to `CC1(N)CCN(c2cnc(Sc3cccc(NC(=O)CCCCCCCOC4CCN(c5ccc(C(=O)NCc6ccc7c(c6)CN(C6CCC(=O)NC6=O)C7=O)nn5)CC4F)c3)cn2)CC1` (stereo not shown) [Compound 146], the DC50 on SHP2 protein [1] and on SHP2 protein [2] was less than 100 nM throughout.

As for `CC1(N)CCN(c2cnc(Sc3cccc(NC(=O)CCCCCCN4CC5(CCN(c6cnc(C(=O)NCc7ccc8c(c7)CN(C7CCC(=O)NC7=O)C8=O)cn6)C5)C4)c3)cn2)CC1` (stereo not shown) [Compound 179], the 50% degradation concentration (DC50) on SHP2 protein [1] is less than 100 nM; at SHP2 protein [2], more than 1000 nM.

With `CC1(N)CCN(c2cnc(Sc3cccc(NC(=O)CCCCCCCCN4CCN(c5ncc(C(=O)NCc6ccc7c(c6)CN(C6CCC(=O)NC6=O)C7=O)cn5)CC4)c3)cn2)CC1` (stereo not shown) [Compound 48, 2-(4-(9-((3-((5-(4-amino-4-methylpyridin-1-yl)pyrazin-2-yl)thio)phenyl)amino)-9-oxononyl)piperazin-1-yl)-N-((2-(2,6-dioxopiperidin-3-yl)-1-oxoisoindol-5-yl)methyl)pyrimidine-5-formamide], the half-maximal degradation concentration (DC50) at SHP2 protein [1] and on SHP2 protein [2] was less than 100 nM throughout.

Take `O=C1CCC(N2Cc3cc(CNC(=O)c4ccc(N5CCC6(CN(CCCCCCC(=O)Nc7cccc(Sc8cnc(N9CCC%10(CCNC%10)CC9)cn8)c7)C6)C5)nn4)ccc3C2=O)C(=O)N1` (stereo not shown) [Compound 112]: the half-maximal degradation concentration (DC50) at SHP2 protein [1] is less than 100 nM; on SHP2 protein [2], more than 1000 nM.

In the case of `CC1(N)CCN(c2cnc(Sc3cccc(NC(=O)CCCCCCN4CC5(CCN(c6ccc(C(=O)NCc7ccc8c(c7)CN(C7CCC(=O)NC7=O)C8=O)cn6)C5)C4)c3)cn2)CC1` (stereo not shown) [Compound 155], the DC50 on SHP2 protein [1] and on SHP2 protein [2] was less than 100 nM throughout.

As for `CC1(N)CCN(c2cnc(Sc3cccc(NC(=O)CCCCCCN4CC5(CCN(c6ncc(C(=O)NCc7ccc8c(c7)CN(C7CCC(=O)NC7=O)C8=O)cc6C(F)(F)F)C5)C4)c3)cn2)CC1` (stereo not shown) [Compound 170], the DC50 was less than 100 nM on SHP2 protein [1] and 100 to 1000 nM on SHP2 protein [2].

As for `Cc1cc(N2CCC3(CN(CCCCCCC(=O)Nc4cccc(Sc5cnc(N6CCC(N)(CO)CC6)cn5)c4)C3)C2)cnc1C(=O)NCc1ccc2c(c1)CN(C1CCC(=O)NC1=O)C2=O` (stereo not shown) [Compound 208], the DC50 at SHP2 protein [1] was less than 100 nM; at SHP2 protein [2], more than 1000 nM.

On to `CC1(N)CCN(c2cnc(Sc3cccc(NC(=O)CCCCCCCCCCNc4ccc(C(=O)NCc5ccc6c(c5)CN(C5CCC(=O)NC5=O)C6=O)nn4)c3)cn2)CC1` (stereo not shown) [Compound 185], for which the values for the 50% degradation concentration (DC50) on SHP2 protein [1] and on SHP2 protein [2] were less than 100 nM and 100 to 1000 nM, respectively.

Turning to `CC1(N)CCN(c2cnc(Sc3cccc(NC(=O)CCCCCCN4CC5(CCN(c6ncc(C(=O)NCc7ccc8c(c7)CN(C7CCC(=O)NC7=O)C8=O)cn6)C5)C4)c3)cn2)CC1` (stereo not shown) [Compound 91], the half-maximal degradation concentration (DC50) is less than 100 nM on SHP2 protein [1] and 100 to 1000 nM at SHP2 protein [2].

Turning to `CC1(N)CCN(c2cnc(Sc3cccc(NC(=O)/C=C/C(=O)N4CCN(CCCCCCCCC(=O)NCc5ccc6c(c5)CN(C5CCC(=O)NC5=O)C6=O)CC4)c3)cn2)CC1` (stereo not shown) [Compound 55], the DC50 is less than 100 nM on SHP2 protein [1] and more than 1000 nM at SHP2 protein [2].

With `CC1(N)CCN(c2cnc(Sc3cccc(NC(=O)CCCCCC=C4CC5(CCN(c6ccc(C(=O)NCc7ccc8c(c7)CN(C7CCC(=O)NC7=O)C8=O)nn6)CC5)C4)c3)cn2)CC1` (stereo not shown) [Compound 209], the figures for the DC50 on SHP2 protein [1] and at SHP2 protein [2] were less than 100 nM and more than 1000 nM, respectively.

Turning to `CC1(N)CCN(c2cnc(Sc3cccc(NC(=O)CCCCCOc4ccc(C5CCC(C(=O)NCc6ccc7c(c6)CN(C6CCC(=O)NC6=O)C7=O)CC5)cc4)c3)cn2)CC1` (stereo not shown) [Compound 191], the 50% degradation concentration (DC50) is less than 100 nM on SHP2 protein [1] and more than 1000 nM on SHP2 protein [2].

For `Cc1ncsc1-c1ccc([C@H](C)NC(=O)[C@@H]2C[C@@H](O)CN2C(=O)[C@@H](NC(=O)c2ccc(N3CCC4(CN(CCC(=O)Nc5cccc(Sc6cnc(N7CCC(C)(N)CC7)cn6)c5)C4)C3)nn2)C(C)(C)C)cc1` [Compound 98], the values for the 50% degradation concentration (DC50) on SHP2 protein [1] and on SHP2 protein [2] were less than 100 nM and 100 to 1000 nM, respectively.

Turning to `Cc1ncsc1-c1ccc([C@H](C)NC(=O)[C@@H]2C[C@@H](O)CN2C(=O)[C@@H](NC(=O)c2cnc(N3CCC4(CN(CCCCCCC(=O)Nc5cccc(Sc6cnc(N7CCC(C)(N)CC7)cn6)c5)C4)C3)nc2)C(C)(C)C)cc1` [Compound 90], the DC50 on SHP2 protein [1] and at SHP2 protein [2] was less than 100 nM in each case.

Take `CC1(N)CCN(c2cnc(Sc3cccc(NC(=O)CCCCCOc4ccc(C5CCC(C(=O)NCc6ccc7c(c6)CN(C6CCC(=O)NC6=O)C7=O)CC5)cc4)c3)cn2)CC1` (stereo not shown) [Compound 192]: the DC50 on SHP2 protein [1] is less than 100 nM; on SHP2 protein [2], more than 1000 nM.

Consider `CC1(N)CCN(c2cnc(Sc3cccc(NC(=O)CCCCCCCN4CC5(CCN(c6ccc(COc7cccc8c7CN(C7CCC(=O)NC7=O)C8=O)nn6)C5)C4)c3)cn2)CC1` (stereo not shown) [Compound 107], for which the 50% degradation concentration (DC50) at SHP2 protein [1] was less than 100 nM; on SHP2 protein [2] it was more than 1000 nM.

Regarding `COc1nc(N2CCC3(CN(CCCCCCC(=O)Nc4cccc(Sc5cnc(N6CCC(C)(N)CC6)cn5)c4)C3)C2)ccc1C(=O)NCc1ccc2c(c1)CN(C1CCC(=O)NC1=O)C2=O` (stereo not shown) [Compound 211], the 50% degradation concentration (DC50) on SHP2 protein [1] and on SHP2 protein [2] was less than 100 nM throughout.

As for `CC1(N)CCN(c2cnc(Sc3cccc(NC(=O)CCCCCCN4CC5(CCN(c6ccc(C#Cc7ccc8c(c7)CN(C7CCC(=O)NC7=O)C8=O)nn6)C5)C4)c3)cn2)CC1` (stereo not shown) [Compound 157], the values for the half-maximal degradation concentration (DC50) on SHP2 protein [1] and on SHP2 protein [2] were less than 100 nM and more than 1000 nM, respectively.

As to `CC1(N)CCN(c2cnc(Sc3ccc(NC(=O)CCCCCCCCOC4CN(c5ncc(C(=O)NCc6ccc7c(c6)CN(C6CCC(=O)NC6=O)C7=O)cn5)C4)cc3)cn2)CC1` (stereo not shown) [Compound 74], the 50% degradation concentration (DC50) is less than 100 nM on SHP2 protein [1] and 100 to 1000 nM at SHP2 protein [2].

Regarding `CC1(N)CCN(c2cnc(Sc3cccc(NC(=O)CCCCCCOC4CC5CN(c6ccc(C(=O)NCc7ccc8c(c7)CN(C7CCC(=O)NC7=O)C8=O)nn6)CC5C4)c3)cn2)CC1` (stereo not shown) [Compound 183], the DC50 at SHP2 protein [1] is less than 100 nM; on SHP2 protein [2], more than 1000 nM.

As for `NC1CCN(c2cnc(Sc3cccc(NC(=O)CCCCN4CC5(CCN(c6ccc(C(=O)NCc7ccc8c(c7)CN(C7CCC(=O)NC7=O)C8=O)nn6)C5)C4)c3)cn2)CC1F` (stereo not shown) [Compound 140], the 50% degradation concentration (DC50) at SHP2 protein [1] and at SHP2 protein [2] was more than 1000 nM each time.

As for `CC1(N)CCN(c2cnc(Sc3cccc(NC(=O)CCCCCOc4ccc(C5CC5C(=O)NCc5ccc6c(c5)C(=O)N(C5CCC(=O)NC5=O)C6)cc4)c3)cn2)CC1` (stereo not shown) [Compound 189, 2-(4-((6-((3-((5-(4-amino-4-methylpyridin-1-yl)pyrazin-2-yl)thio)phenyl)amino)-6-oxohexyl)oxy)phenyl)-N-((2-(2,6-dioxopiperidin-3-yl)-3-oxoisoindol-5-yl)methyl)cyclopropane-1-formamide], the values for the 50% degradation concentration (DC50) at SHP2 protein [1] and on SHP2 protein [2] were less than 100 nM and more than 1000 nM, respectively.
